Assay results as given in patent publication US20100298141A1, “SUBSTITUTED PYRIDINE N-OXIDE HERBICIDES” (E. I. DU PONT DE NEMOURS AND COMPANY, priority 2007, published 2010).

How the values were obtained:
Assay in all cases: Test F preemergence test
[1] = tested on: pitted morningglory; type: in vivo, Ipomoea lacunosa; conditions: scale 0 to 100
Method in brief: (§1)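 Greenhouse screen: test chemical in surfactant-containing non-phytotoxic solvent applied preemergence to sown seeds or postemergence to sugarcane plants; after 14 to 21 days each species scored visually versus controls.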

[2] = tested on: Italian ryegrass; type: in vivo, Lolium multiflorum; conditions: scale 0 to 100
Method in brief: as §1

[3] = tested on: dallisgrass; type: in vivo, Paspalum dilatatum; conditions: scale 0 to 100
Method in brief: as §1

[4] = tested on: goosegrass; type: in vivo, Eleusine indica; conditions: scale 0 to 100
Method in brief: as §1

[5] = tested on: bermudagrass; type: in vivo, Cynodon dactylon; conditions: scale 0 to 100; for Plant response rating, Bermudagrass: Preemergence
Method in brief: as §1

[6] = tested on: Virginia dayflower; type: in vivo, Commelina virginica; conditions: scale 0 to 100
Method in brief: as §1

[7] = tested on: quackgrass; type: in vivo, Elytrigia repens; conditions: scale 0 to 100
Method in brief: as §1

[8] = tested on: guineagrass; type: in vivo, Panicum maximum; conditions: scale 0 to 100
Method in brief: as §1

[9] = tested on: broadleaf signalgrass; type: in vivo, Brachiaria platyphylla; conditions: scale 0 to 100
Method in brief: as §1

[10] = tested on: large crabgrass; type: in vivo, Digitaria sanguinalis; conditions: scale 0 to 100
Method in brief: as §1

[11] = tested on: mustard; type: in vivo, Brassica nigra; conditions: scale 0 to 100
Method in brief: as §1

[12] = tested on: kochia; type: in vivo, Kochia scoparia; conditions: scale 0 to 100
Method in brief: as §1

[13] = tested on: barnyardgrass; type: in vivo, Echinochloa crus-galli; conditions: scale 0 to 100
Method in brief: as §1

[14] = tested on: common purslane; type: in vivo, Portulaca oleracea; conditions: scale 0 to 100
Method in brief: as §1

[15] = tested on: prickly sida; type: in vivo, Sida spinosa; conditions: scale 0 to 100
Method in brief: as §1

[16] = tested on: Surinam grass; type: in vivo, Brachiaria decumbens; conditions: scale 0 to 100
Method in brief: as §1

[17] = tested on: common ragweed; type: in vivo, Ambrosia elation; conditions: scale 0 to 100
Method in brief: as §1

[18] = tested on: itchgrass; type: in vivo, Rottboellia cochinchinensis; conditions: scale 0 to 100
Method in brief: as §1

[19] = tested on: johnsongrass; type: in vivo, Sorghum halepense; conditions: scale 0 to 100
Method in brief: as §1

[20] = tested on: naked crabgrass; type: in vivo, Digitaria nuda; conditions: scale 0 to 100
Method in brief: as §1

`Cn1nc(C(F)(F)F)c(CS(=O)(=O)c2cccc[n+]2[O-])c1OCC(F)(F)F` [Compound 29] was tested, and the “Morningglory plant response rating” value ([1]; 62 g ai/ha, Preemergence) was 60, the “Morningglory plant response rating” value ([1]; 125 g ai/ha, preemergence) was 80 and the “Plant response rating, Morningglory” value ([1]; Preemergence, 16 g ai/ha) was 0. For the same compound, the “Plant response rating, Morningglory” value ([1]; Preemergence, 31 g ai/ha) was 0, the “Ryegrass, Italian plant response rating” value ([2]; 62 g ai/ha, Preemergence) was 100 and the “Ryegrass, Italian plant response rating” value ([2]; 125 g ai/ha, preemergence) was 100. For the same compound, the “Plant response rating, Ryegrass, Italian” value ([2]; Preemergence, 16 g ai/ha) was 65, the “Plant response rating, Ryegrass, Italian” value ([2]; Preemergence, 31 g ai/ha) was 100 and the “Dallisgrass plant response rating” value ([3]; 62 g ai/ha, Preemergence) was 100. For the same compound, the “Dallisgrass plant response rating” value ([3]; 125 g ai/ha, preemergence) was 100, the “Plant response rating, Dallisgrass” value ([3]; Preemergence, 16 g ai/ha) was 0 and the “Plant response rating, Dallisgrass” value ([3]; Preemergence, 31 g ai/ha) was 100. For the same compound, the “Goosegrass plant response rating” value ([4]; 62 g ai/ha, Preemergence) was 100, the “Goosegrass plant response rating” value ([4]; 125 g ai/ha, preemergence) was 100 and the “Plant response rating, Goosegrass” value ([4]; Preemergence, 16 g ai/ha) was 65. For the same compound, the “Plant response rating, Goosegrass” value ([4]; Preemergence, 31 g ai/ha) was 100, the “Bermudagrass plant response rating” value ([5]; 125 g ai/ha, preemergence) was 100 and the “Plant response rating, Bermudagrass” value ([5]; 16 g ai/ha) was 40. For the same compound, the “Plant response rating, Bermudagrass” value ([5]; 31 g ai/ha) was 90, the “Dayflower plant response rating” value ([6]; 62 g ai/ha, Preemergence) was 100 and the “Dayflower plant response rating” value ([6]; 125 g ai/ha, preemergence) was 100. For the same compound, the “Plant response rating, Dayflower” value ([6]; Preemergence, 16 g ai/ha) was 0, the “Plant response rating, Dayflower” value ([6]; Preemergence, 31 g ai/ha) was 95 and the “Quackgrass plant response rating” value ([7]; 62 g ai/ha, Preemergence) was 95. The “Quackgrass plant response rating” value ([7]; 125 g ai/ha, preemergence) was 95, the “Plant response rating, Quackgrass” value ([7]; Preemergence, 16 g ai/ha) was 0 and the “Plant response rating, Quackgrass” value ([7]; Preemergence, 31 g ai/ha) was 30. For the same compound, the “Guineagrass plant response rating” value ([8]; 62 g ai/ha, Preemergence) was 100, the “Guineagrass plant response rating” value ([8]; 125 g ai/ha, preemergence) was 100 and the “Plant response rating, Guineagrass” value ([8]; Preemergence, 16 g ai/ha) was 90. The “Plant response rating, Guineagrass” value ([8]; Preemergence, 31 g ai/ha) was 100, the “Signalgrass plant response rating” value ([9]; 62 g ai/ha, Preemergence) was 100 and the “Signalgrass plant response rating” value ([9]; 125 g ai/ha, preemergence) was 100. The “Plant response rating, Signalgrass” value ([9]; Preemergence, 31 g ai/ha) was 50, the “Crabgrass, Large plant response rating” value ([10]; 62 g ai/ha, Preemergence) was 95 and the “Crabgrass, Large plant response rating” value ([10]; 125 g ai/ha, preemergence) was 100. For the same compound, the “Plant response rating, Crabgrass, Large” value ([10]; Preemergence, 16 g ai/ha) was 15, the “Plant response rating, Crabgrass, Large” value ([10]; Preemergence, 31 g ai/ha) was 95 and the “Black Mustard plant response rating” value ([11]; 62 g ai/ha, Preemergence) was 100. The “Black Mustard plant response rating” value ([11]; 125 g ai/ha, preemergence) was 100, the “Plant response rating, Black Mustard” value ([11]; Preemergence, 16 g ai/ha) was 40 and the “Plant response rating, Black Mustard” value ([11]; Preemergence, 31 g ai/ha) was 100. For the same compound, the “Kochia plant response rating” value ([12]; 62 g ai/ha, Preemergence) was 100, the “Kochia plant response rating” value ([12]; 125 g ai/ha, preemergence) was 100 and the “Plant response rating, Kochia” value ([12]; Preemergence, 16 g ai/ha) was 0. For the same compound, the “Plant response rating, Kochia” value ([12]; Preemergence, 31 g ai/ha) was 30, the “Barnyardgrass plant response rating” value ([13]; 62 g ai/ha, Preemergence) was 100 and the “Barnyardgrass plant response rating” value ([13]; 125 g ai/ha, preemergence) was 100. For the same compound, the “Plant response rating, Barnyardgrass” value ([13]; Preemergence, 16 g ai/ha) was 50, the “Plant response rating, Barnyardgrass” value ([13]; Preemergence, 31 g ai/ha) was 100 and the “Purslane plant response rating” value ([14]; 62 g ai/ha, Preemergence) was 30. For the same compound, the “Purslane plant response rating” value ([14]; 125 g ai/ha, preemergence) was 30, the “Plant response rating, Purslane” value ([14]; Preemergence, 16 g ai/ha) was 0 and the “Plant response rating, Purslane” value ([14]; Preemergence, 31 g ai/ha) was 0. The “Prickly Sida plant response rating” value ([15]; 62 g ai/ha, Preemergence) was 95, the “Prickly Sida plant response rating” value ([15]; 125 g ai/ha, preemergence) was 100 and the “Plant response rating, Prickly Sida” value ([15]; Preemergence, 16 g ai/ha) was 40. The “Plant response rating, Prickly Sida” value ([15]; Preemergence, 31 g ai/ha) was 95, the “Surinam Grass plant response rating” value ([16]; 62 g ai/ha, Preemergence) was 100 and the “Surinam Grass plant response rating” value ([16]; 125 g ai/ha, preemergence) was 100. For the same compound, the “Plant response rating, Surinam Grass” value ([16]; Preemergence, 31 g ai/ha) was 75, the “Ragweed plant response rating” value ([17]; 62 g ai/ha, Preemergence) was 70 and the “Ragweed plant response rating” value ([17]; 125 g ai/ha, preemergence) was 80. For the same compound, the “Plant response rating, Ragweed” value ([17]; Preemergence, 16 g ai/ha) was 0, the “Plant response rating, Ragweed” value ([17]; Preemergence, 31 g ai/ha) was 40 and the “Itchgrass plant response rating” value ([18]; 62 g ai/ha, Preemergence) was 75. The “Itchgrass plant response rating” value ([18]; 125 g ai/ha, preemergence) was 95, the “Plant response rating, Itchgrass” value ([18]; Preemergence, 16 g ai/ha) was 0 and the “Plant response rating, Itchgrass” value ([18]; Preemergence, 31 g ai/ha) was 30. For the same compound, the “Johnsongrass plant response rating” value ([19]; 62 g ai/ha, Preemergence) was 100, the “Johnsongrass plant response rating” value ([19]; 125 g ai/ha, preemergence) was 100 and the “Plant response rating, Johnsongrass” value ([19]; Preemergence, 16 g ai/ha) was 70. For the same compound, the “Plant response rating, Johnsongrass” value ([19]; Preemergence, 31 g ai/ha) was 100, the “Crabgrass, Naked plant response rating” value ([20]; 62 g ai/ha, Preemergence) was 100 and the “Crabgrass, Naked plant response rating” value ([20]; 125 g ai/ha, preemergence) was 100. For the same compound, the “Plant response rating, Crabgrass, Naked” value ([20]; Preemergence, 31 g ai/ha) was 80.
